Where two headings read alike, the source gives them in different places.
Assays:
[1] = system: Hep G2 (human hepatocellular carcinoma); parameters: method as in PMID 30153471, PMID 33999337; details: MTT; results based on previous work; read-out: IC50 ± SEM, Hep G2; cited from earlier work
[2] = system: HeLa S3 (human cervical carcinoma); parameters: method as in PMID 30153471, PMID 33999337; details: MTT; results based on previous work; read-out: IC50 ± SEM, HeLa S3; cited from earlier work
[3] = system: HT-29 (human colon adenocarcinoma); parameters: method as in PMID 30153471, PMID 33999337; key to IC50 ± SEM, HT-29: IC50 ≤ 10 µM = good cytotoxicity; 10 µM < IC50 ≤ 30 µM = weak cytotoxicity; inactive (IC50 > 30 µM); details: MTT; results based on previous work; cited from earlier work
[4] = system: KB (human epidermoid carcinoma); parameters: method as in PMID 30153471, PMID 33999337; details: MTT; results based on previous work; read-out: IC50 ± SEM, KB; cited from earlier work
[5] = target: T1, COX-2 (human recombinant PGHS-2) (Homo sapiens, UniProt P35354); assay: COX-2 enzyme inhibition assay (PGE2 ELISA); type: biochemical; details: mean ± SD (n = 4)
T1 construct: purchased Cayman Chemical Co., Ann Arbor, MI, USA
T1 sequence (P35354 18-604): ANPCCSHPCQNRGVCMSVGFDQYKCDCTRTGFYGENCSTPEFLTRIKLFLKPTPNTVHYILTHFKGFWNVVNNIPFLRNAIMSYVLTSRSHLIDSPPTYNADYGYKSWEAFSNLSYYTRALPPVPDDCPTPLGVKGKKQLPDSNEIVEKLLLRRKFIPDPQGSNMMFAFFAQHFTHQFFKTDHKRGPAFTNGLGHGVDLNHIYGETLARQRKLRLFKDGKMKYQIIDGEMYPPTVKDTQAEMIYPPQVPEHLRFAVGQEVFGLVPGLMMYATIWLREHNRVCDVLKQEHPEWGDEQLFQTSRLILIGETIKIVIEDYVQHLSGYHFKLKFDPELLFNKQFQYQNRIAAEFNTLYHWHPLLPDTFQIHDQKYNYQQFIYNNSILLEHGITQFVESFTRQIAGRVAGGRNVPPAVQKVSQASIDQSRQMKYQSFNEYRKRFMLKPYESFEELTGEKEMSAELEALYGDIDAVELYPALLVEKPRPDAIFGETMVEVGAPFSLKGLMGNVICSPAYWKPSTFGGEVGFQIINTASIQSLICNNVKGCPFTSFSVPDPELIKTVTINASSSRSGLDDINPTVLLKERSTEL
Description: The anti-inflammatory effects of the isolated compounds were also screened on COX-1 and COX-2 enzymes inhibition at a final concentration of 20 µM.
Purified PGHS-1 from ram seminal vesicles for COX-1 and human recombinant PGHS-2 for COX-2 (Cayman Chemical Co., Ann Arbor, MI, USA) were used for the COX inhibition assays. Experiments were performed in a 96-well plate format, as previously described. Briefly, the incubation mixture contained 180 µL of 0.1 M TRIS/HCl-buffer pH 8.0 (Roth, Karlsruhe, Germany), 50 µM Na2EDTA (only for COX-2, Titriplex III, Merck, Darmstadt, Germany), 18 mM L-epinepherine bitartrate (Fluka, Buchs, Switzerland), 5 µM porcine hematin (MP Biomedicals LLC, Solon, OH, USA), and COX-1 or COX-2 enzymes (0.2 U/well). Ten microliters of tested compounds (dissolved in DMSO with a final concentration of 20 µM) was added and the mixture was pre-incubated for 5 min at room temperature. Thereafter, 10 µL of 5 µM arachidonic acid (Ann Arbor, Michigan USA) was added to the mixture and incubated for 20 min at 37 °C. The reaction was subsequently stopped by adding 10 µL of 10% (v/v) formic acid. The concentration of PGE2 generated in the reaction was quantitatively measured by a competitive PGE2 ELISA kit (Enzo Life Sciences Inc., Farmingdale, NY, USA) according to the manufacturer’s protocol and previous procedure. The absorbance at 405 nm was measured using a Hidex Sense Microplate Reader (Hidex, Turku, Finland). […] The assays were performed in duplicates and repeated in two independent experiments.

[6] = system: HT-29 (human colon adenocarcinoma); assay: MTT cytotoxic activity assay, HT-29; type: cell-based; details: 72 h, mean ± SEM of three replicates
Description: (§1) The cytotoxic activity of the isolated compounds was evaluated using the MTT viability assay with doxorubicin as the positive control and the results are presented in Table 2.
(§2) The MTT colorimetric method was performed to evaluate cytotoxic activity of the isolated compounds against human epidermoid carcinoma (KB; ATCC CCL17), human cervical carcinoma (HeLa S3; ATCC CCL2-2), human colon adenocarcinoma (HT-29; ATCC HTB-38), human breast adenocarcinoma (MCF-7; ATCC HTB-22), and human hepatocellular carcinoma (Hep G2; ATCC HB-8065) cell lines according to the previous method. […] After centrifugation at 1400 rpm for 5 min at 4 °C, the supernatant was decanted and DMSO (100 µL/well) was added to allow formazan product solubilization, which was subsequently measured by a microplate reader (Tecan Trading AG, Switzerland) at wavelength 550 nm. […] The results are expressed as the mean values of three replicates for three independent experiments. IC50 values were determined by graphical analysis using SigmaPlot 10 (Systat Software Inc., San Jose, CA, USA), obtained by plotting the cell viability percentage versus sample concentration.

[7] = system: HeLa S3 (human cervical carcinoma); assay: MTT cytotoxic activity assay, HeLa S3; type: cell-based; details: 72 h, mean ± SEM of three replicates
Description: as §1
(§3) The MTT colorimetric method was performed to evaluate cytotoxic activity of the isolated compounds against human epidermoid carcinoma (KB; ATCC CCL17), human cervical carcinoma (HeLa S3; ATCC CCL2-2), human colon adenocarcinoma (HT-29; ATCC HTB-38), human breast adenocarcinoma (MCF-7; ATCC HTB-22), and human hepatocellular carcinoma (Hep G2; ATCC HB-8065) cell lines according to the previous method. The cancer cells were cultured in MEM containing 10% fetal bovine serum in the presence of 100 U/mL penicillin and 100 μg/mL streptomycin sulphate (Gibco, Rockville, MD, USA), seeded in a 96-well plate (3000 cells/well), and pre-incubated at 37 °C for 24 h in a 5% CO2 humidified atmosphere. The tested compounds with serial concentrations (0.3–100 μM) were added and incubated for a further 72 h in the same condition. At the end of treatment, 20 µL of MTT solution (5 mg/mL in PBS, Sigma, St. Louis, MI, USA) was added to each well and further incubated for 3 h. After centrifugation at 1400 rpm for 5 min at 4 °C, the supernatant was decanted and DMSO (100 µL/well) was added to allow formazan product solubilization, which was subsequently measured by a microplate reader (Tecan Trading AG, Switzerland) at wavelength 550 nm. Control cells were treated with 0.1% DMSO. Doxorubicin (tested concentrations: 0.01–3.0 μM, Sigma) was used as the positive control. The results are expressed as the mean values of three replicates for three independent experiments. IC50 values were determined by graphical analysis using SigmaPlot 10 (Systat Software Inc., San Jose, CA, USA), obtained by plotting the cell viability percentage versus sample concentration.

[8] = system: KB (human epidermoid carcinoma); assay: MTT cytotoxic activity assay, KB; type: cell-based; details: 72 h, mean ± SEM of three replicates
Description: as §1, §3

[9] = system: four cancer cells (KB, HeLa S3, MCF-7, and Hep G2); assay: MTT cytotoxicity, four cancer cells stated together; type: cell-based; details: Homo sapiens; range over KB, HeLa S3, MCF-7, Hep G2; read-out: IC50 values against four cancer cells
Description: as §1, §2

[10] = system: MCF-7 (human breast adenocarcinoma); assay: MTT cytotoxic activity assay, MCF-7; type: cell-based; details: MCF7, 72 h, mean ± SEM of three replicates
Description: as §1, §2

Compound	IC50 [1]	IC50 [2]	IC50 ± SEM, HT-29 [3]	IC50 [4]	inhibition at 20 µM [5]	IC50 [6]	IC50 [7]	IC50 [8]	IC50 [9]	IC50 [10]
C[C@@H]1Oc2cc(O)c3c(=O)c4ccc(O)c(O)c4oc3c2C1(C)C [Compound 7, 2-deprenylrheediaxanthone B]	10 ± 0.2 µM	6 ± 0.5 µM	inactive	5.1 ± 0.4 µM	< 10%					
C[C@H]1Oc2c(c(O)c3c(=O)c4ccc(O)c(O)c4oc3c2CCC(C)(C)O)C1(C)C [Compound 4, gerontoxanthone C hydrate]					< 10%	20.3 ± 0.6 µM	5.6 ± 0.1 µM	7.5 ± 0.8 µM	5.6 to 7.5 µM	5.7 ± 0.3 µM

Reference: paper PMC8587515, “Cytotoxic and Anti-Inflammatory Activities of Dihydroisocoumarin and Xanthone Derivatives from Garcinia picrorhiza” (Molecules, 2021)
